Measured values from ChEMBL document CHEMBL1147573, “Chemiluminescence quenching of pteroic acid-N-sulfonyl-acridinium-9-carboxamide conjugates by folate binding protein” (Bioorg Med Chem Lett, 2004).

Assay: Binding affinity towards folate binding protein

SMILES | IC50
Cc1ccc(S(=O)(=O)N(CCCC(=O)NCCCCCCNC(=O)c2ccc(N(Cc3cnc4nc(N)nc(O)c4n3)C(=O)C(F)(F)F)cc2)C(=O)c2c3ccccc3[n+](CCCS(=O)(=O)[O-])c3ccccc23)cc1 | 8.43 nM
Cc1ccc(S(=O)(=O)N(CCCS(=O)(=O)[O-])C(=O)c2c3ccccc3[n+](CCCCCCCCCC(=O)NCCCCCCNC(=O)c3ccc(N(Cc4cnc5nc(N)nc(O)c5n4)C(=O)C(F)(F)F)cc3)c3ccccc23)cc1 | 8.14 nM
